# Test results taken from US7371834B2, “Apoptosis-inducing factor” (Amgen Inc., priority 1998, dated 2008).
# Peptide text beside a SMILES is read from it. * marks the point of attachment. Cbz = O=C(OCc1ccccc1)*; CH2F = FC*
# Tests used:
# HeLa nuclei = test: Pulse field gel electrophoresis of DNA from AIF-treated HeLa nuclei; assay type: biochemical; details: 90 min with 100 ng AIF; 200 μM p-chloromercuryphenylsulfonic acid, 200 μM Z-VAD.fmk, 5 mM EDTA
# Method: In addition, each nuclear preparation was assessed for the frequency of hypoploid nuclei as in A.
# (§1) 2B4.11 T cell hybridoma cells stably transfected with a SFFV.neo vector containing the human bcl-2 gene or the neomycin resistance gene (Neo) only [Susin et al., J. Exp. Med. 184:1331-1342 (1996)] were subjected to mechanical lysis and differential centrifugation for the subsequent recovery of nuclei, mitochondria, and organelle-free cytosols [Liu et al. Cell 86:147-157 (1996)]. Submitochondrial fractionation of mouse liver mitochondria was controlled by the determination of suitable marker enzymes [Susin et al., J. Exp. Med. 186:25-37 (1997); Pedersen et al., Meth. Cell Biol. 20:411-481 (1978)]. Purified HeLa cell nuclei were exposed to different preparations of AIF, and nuclear apoptosis was quantitated by staining with DNA-intercalating propidium iodide and cytofluorometric determination of DNA content [Susin et al., J. Exp. Med. 186:25-37 (1997)]. Alternatively, nuclei were stained with Hoechst 33342 dye or subjected to DNA extraction and pulse field gel electrophoresis. […] The release of cytochrome c and caspase-9 into the supernatant was measured by immunoblot using a monoclonal anti-cytochrome c antibody (7H8.2C12, Pharmingen), or a rabbit antibody directed against the large subunit of caspase-9 (Hazelton Research Products Inc., Denver, Pa.).
# [1] = system: purified rat liver mitochondria; test: Large amplitude swelling of purified mitochondria; assay type: biochemical; details: Z-VAD.fmk 100-200 μM
# Method: Purified rat liver mitochondria were monitored continuously for large amplitude swelling. Arrows indicate the addition of Ca^2+(200 μM; positive control), AIF (100 ng/ml), cytosol (100 μg protein per ml), and/or Z-VAD.fmk (100 μM, pre-added to the cytosol/AIF mixture). Note that only the combined addition of AIF plus cytosol (right panel) causes mitochondrial swelling.
# as §1, with “Submitochondrial fractionation of mouse liver mitochondria was controlled by the determination of suitable marker enzymes [Susin et al., J. Exp. Med. 186:25-37 (1997); Pedersen et al., Meth. Cell Biol. 20:411-481 (1978)].” left out, “(1997)].” for “(1997)]. Alternatively, nuclei were stained with Hoechst 33342 dye or subjected to DNA extraction and pulse field gel electrophoresis.”
# isolated mitochondria = test: Release of cytochrome c and caspase-9 from isolated mitochondria (immunoblot of supernatants); assay type: biochemical, rat; details: rec. AIF+cytosol+Z-VAD.fmk
# Method: Isolated mitochondria were subjected to osmotic lysis (1) or treated as in A (15 min) with buffer only (2), rec. AIF (3), cytosol (4), rec. AIF+cytosol (5), or rec. AIF+cytosol+Z-VAD.fmk (6) and their supernatants were subjected to immunoblot analysis of cytochrome c and caspase-9.
# as §1, with “Cell Biol. 20:411-481 (1978)].” left out, “(1997)].” for “(1997)]. Alternatively, nuclei were stained with Hoechst 33342 dye or subjected to DNA extraction and pulse field gel electrophoresis.”
# caspase = test: Cleavage of caspase substrate by mitochondrial supernatants; assay type: biochemical
# Method: The same mitochondrial supernatants as in FIG. 3F were tested for their capacity to cleave the caspase substrate Z-VAD.afc, leading to the generation of the fluorochrome afc. The 100% value refers to the enzymatic activity obtained by osmotic lysis of mitochondria
# Rat-1 cells [2] = test: Microinjection into the cytoplasm of Rat-1 cells, quantitation of apoptosis; assay type: cell-based; details: 100 μM Z-VAD.fmk
# Method: FIGS. 4A-4D show the effects of AIF on intact cells. […] Buffer only or recombinant AIF (10 μM) were injected into the cytoplasm of Rat-1 cells, which were cultured for 90 min in the absence or presence of 100 μM Z-VAD.fmk (added 15 min before injection). Microinjected cells could be identified because the injectate contained FITC-dextran (green fluorescence not shown). Representative (three independent experiments, 100-200 microinjected cells per session) microphotographs of viable cells stained with the DYm-sensitive dye CMXRos and Hoechst 33342 (as in FIG. 2E., upper panels) or Annexin-V, which labels surface-exposed phosphatidylserine residues (red fluorescence in lower panels).
# (§2) Rat-1 fibroblast cells were microinjected (pressure 150 hPa; 0.2 sec; Marzo et al., Science 281:2027-2031 (1998)) with buffer only, atractyloside (50 μM), dialyzed antisera, AIF-derived peptides (100 μM), horse cytochrome c (Sigma), or the indicated dose of recombinant mAIF. The caspase inhibitor Z-VAD.fmk (100 μM; Bachem, Basel Switzerland) was added to the culture medium 30 min before microinjection into the cytoplasm (pressure 150 hPa; 0.2 sec). […] Microinjected viable cells (100-200 per session, two to three independent sessions of injection) were identified by inclusion of 0.25% (w:v) FITC-dextran (green fluorescence) in the injectate. Only the blue or red fluorescence was recorded. […]
# Rat-1 cells [3] = test: Microinjection of anti-AIF antiserum into Rat-1 cells treated with atractyloside or staurosporin; assay type: cell-based; details: for retention of DYm-sensitive dye CMXRos by cells: atractyloside 50 μM injected, staurosporin 1 μM, 120 min
# Method: Rat-1 cells were microinjected with atractyloside (ATR, 50 μM) alone, or atractyloside diluted in control serum, anti-AIF antiserum, and/or 100 μM AIF-derived immunogenic peptides. 180 min after microinjection, cells were stained with Hoechst 33342 and CMXRos (as in FIG. 4A, upper panel). Alternatively, cells were cultured for 120 min with staurosporin (1 μM, as in FIGS. 2C-2E), added to the culture medium after microinjection of control antiserum or anti-AIF.
# Rat-1 fibroblast cells were microinjected (pressure 150 hPa; 0.2 sec; Marzo et al., Science 281:2027-2031 (1998)) with buffer only, atractyloside (50 μM), dialyzed antisera, AIF-derived peptides (100 μM), horse cytochrome c (Sigma), or the indicated dose of recombinant mAIF. The caspase inhibitor Z-VAD.fmk (100 μM; Bachem, Basel Switzerland) was added to the culture medium 30 min before microinjection into the cytoplasm (pressure 150 hPa; 0.2 sec). […] Microinjected viable cells (100-200 per session, two to three independent sessions of injection) were identified by inclusion of 0.25% (w:v) FITC-dextran (green fluorescence) in the injectate. Only the blue or red fluorescence was recorded. Transfection of Jurkat T lymphoma cells was performed using AIF cloned in pcDNA3.1 (Invitrogen) vector and Lipofectamine® (Gibco Life Technologies). Cytofluorometric analyses of apoptosis-associated parameters were performed as described [Kroemer et al., “Detection of apoptosis and apoptosis associated alterations,” “The Immunology Methods Manual” (Lefkovitz, R. Ed.); Academic Press, Chapter 14.2., pp. 1111-1125 (1997)].
# mouse liver mitochondria = test: AIF liberation from mitochondria by PT pore opening (Western blot of supernatants); assay type: biochemical; details: 5 mM atractyloside, 200 μM Ca2+
# Method: FIGS. 2A-2F show the submitochondrial and subcellular distribution of AIF in normal and apoptotic cells. […] Western blots were performed on total mouse liver mitochondrion lysate (1), proteins from the matrix (2), inner membrane (3), intermembrane space (4), outer membrane (5), the supernatant of untreated mitochondria (6), or that of mitochondria treated with 5 mM atractyloside (7), 200 μM Ca^2+ (8), 1 μM cyclosporin A (9), atractyloside+CsA (10), or Ca^2++cyclosporin A (11). In addition, the supernatant of atractyloside-treated mitochondria was sham-immunodepleted using a pre-immune serum (12), or AIF-immunodepleted in the absence (13) or presence (14) of AIF-derived immunogenic peptides (see Example 2, below) capable of blocking the AIF antiserum. Aliquots of each preparation were tested for their capacity to induce nuclear hypoploidy in isolated HeLa nuclei.
# Rat-1 fibroblasts = test: Nuclear phenotype of staurosporine-treated Rat-1 fibroblasts; assay type: cell-based; details: Neo cells; staurosporine 1 μM, 2 h
# Text: In Neo cells, staurosporine treatment leads to the generation of two phenotypes, one with partial chromatin condensation (˜80% of cells, stage I), and another with more advanced chromatin condensation and nuclear fragmentation (˜20% of cells, stage II), as identified by phase contrast microscopy or counter-staining with Hoechst 33342 (not shown). Arrow heads are placed in the center of the nucleus.
# Specifically, Rabbit antiserum was generated against a mixture of 3 peptides derived from the mAIF amino acid sequence (amino acid nos. 151-170, 166-185, 181-200, coupled to KLH). This antiserum (ELISA titer ˜10.000) was used in immunoblots (1/2000) and on paraformaldehyde/picrylic acid-fixed [Bossy-Wetzel et al., EMBO J. 17:37-49 (1998)] […] Cytochrome c was detected by immunofluorescence (mAb 6H2.B4 from Pharmingen) in fixed Rat-1 cells transfected with a control vector (Neo) or with human Bcl-2 [Zhu et al., EMBO J. 15:4130-4141 (1996)] as described [Bossy-Wetzel et al., EMBO J. 17, 37-49 (1998)], whereas the DYm sensitive dye CMXRos (100 nM, red fluorescence) was used on live cells [Marzo et al., Science 281, 2027-2031 (1998)]. Cells were counterstained with the Hoechst 33342 dye (1 μM, blue fluorescence). […]
# Jurkat cells = test: Transfection-enforced AIF overexpression in Jurkat cells; assay type: cell-based; details: 24 hours after transfection
# Method: Jurkat cells were transiently transfected with pcDNA3.1 vector only (control) or mouse AIF cDNA (under the control of a cytomegalovirus promoter, see pcDNA3.1 vector from Invitrogen). After 24 hours of culture, cells were stained with the indicated fluorochromes to determine the frequency of apoptosis-associated alterations: loss of DYm (fluorochrome: DiOC(6)3), phosphatidylserine exposure (fluorochrome: Annexin V-FITC), or loss of nuclear DNA (fluorochrome: propidium iodide, PI, after ethanol permeabilization). Numbers refer to the percentage of cells bearing apoptotic characteristics. Results are representative of 3 different experiments.
# as §2
molecule,measurement,setting,value
O=C(O)CN(CCN(CC(=O)O)CC(=O)O)CC(=O)O [EDTA],inhibition of AIF-induced large-scale DNA fragmentation,HeLa nuclei,inhibited
COC(=O)C[C@H](NC(=O)[C@H](C)NC(=O)[C@@H](NC(=O)OCc1ccccc1)C(C)C)C(=O)CF [Z-VAD.fmk] (Cbz-Val-Ala-Asp(OMe)-CH2F),prevention of AIF effects on isolated nuclei or on mitochondria,[1],"None of these AIF effects, either on isolated nuclei or on mitochondria, is prevented"
same,inhibition of AIF-induced release of caspase-9,isolated mitochondria,does not inhibit the release of caspase-9 but rather interferes with its proteolytic activation
same,inhibition of caspase-substrate-cleaving activity in supernatant of mitochondria treated with AIF plus cytosol,caspase,Z-VAD.fmk-inhibitable
same,inhibition of effects mediated by microinjected AIF,Rat-1 cells [2],None of the effects mediated by microinjected AIF is inhibited
same,prevention of cytochrome c-induced apoptosis,Rat-1 cells [2]; microinjected cytochrome c,"succeeds in preventing cytochrome c-induced, caspase-dependent apoptosis"
C=C1[C@@H]2CC[C@H]3[C@]4(C)C[C@H](O[C@@H]5O[C@H](CO)[C@@H](OS(=O)(=O)O)[C@H](OS(=O)(=O)O)[C@H]5OC(=O)CC(C)C)C[C@@H](C(=O)O)[C@H]4CC[C@]3(C2)[C@H]1O [atractyloside],retention of DYm-sensitive dye CMXRos by cells,Rat-1 cells [3],do not retain the DYm-sensitive dye CMXRos
same,release of 57 kDa AIF protein from mitochondria,mouse liver mitochondria,released upon PT pore opening
[Ca+2] [calcium],release of 57 kDa AIF protein from mitochondria,mouse liver mitochondria,released upon PT pore opening
O=S(=O)(O)c1cc[c]([Hg][Cl])cc1 [p-chloromercuryphenylsulfonic acid],inhibition of AIF-induced large-scale DNA fragmentation,HeLa nuclei,inhibited
CN[C@@H]1C[C@H]2O[C@@](C)([C@@H]1OC)n1c3ccccc3c3c4c(c5c6ccccc6n2c5c31)C(=O)NC4 [staurosporine],retention of DYm-sensitive dye CMXRos by cells,Rat-1 cells [3],do not retain the DYm-sensitive dye CMXRos
same,cells with more advanced chromatin condensation and nuclear fragmentation (stage II),Rat-1 fibroblasts,~20 % of cells
same,cells with partial chromatin condensation (stage I),Rat-1 fibroblasts,~80 % of cells
CC(C)(C)OO [tert-butylhydroperoxide],release of 57 kDa AIF protein from mitochondria,mouse liver mitochondria,released upon PT pore opening
"immunogenic peptides: 3 peptides derived from the mAIF amino acid sequence (amino acid nos. 151-170, 166-185, 181-200) (peptide 1 LLIGGGTAAFAAARSIRARD; peptide 2 IRARDPGARVLIVSEDPELP; peptide 3 DPELPYMRPPLSKELWFSDD)",inhibitory effect of AIF-specific antibody when co-injected with excess immunogenic peptides,Rat-1 cells [3]; 100 μM AIF-derived immunogenic peptides,No such inhibitory effect is observed
"wild type AIF: AIF overexpressed in Jurkat cells by transient transfection of mouse AIF cDNA in pcDNA3.1 (protein, UniProt Q9Z0X1 1-612, looked up, full-length) MFRCGGLAGAFKQKLVPLVRTVYVQRPKQRNRLPGNLFQQWRVPLELQMARQMASSGSSGGKMDNSVLVLIVGLSTIGAGAYAYKTIKEDQKRYNERVMGLGLSPEEKQRRAIASATEGGSVPQIRAPSHVPFLLIGGGTAAFAAARSIRARDPGARVLIVSEDPELPYMRPPLSKELWFSDDPNVTKTLQFRQWNGKERSIYFQPPSFYVSAQDLPNIENGGVAVLTGKKVVHLDVRGNMVKLNDGSQITFEKCLIATGGTPRSLSAIDRAGAEVKSRTTLFRKIGDFRALEKISREVKSITVIGGGFLGSELACALGRKSQASGIEVIQLFPEKGNMGKILPQYLSNWTMEKVKREGVKVMPNAIVQSVGVSGGRLLIKLKDGRKVETDHIVTAVGLEPNVELAKTGGLEIDSDFGGFRVNAELQARSNIWVAGDAACFYDIKLGRRRVEHHDHAVVSGRLAGENMTGAAKPYWHQSMFWSDLGPDVGYEAIGLVDSSLPTVGVFAKATAQDNPKSATEQSGTGIRSESETESEASEITIPPSAPAVPQVPVEGEDYGKGVIFYLRDKVVVGIVLWNVFNRMPIARKIIKDGEQHEDLNEVAKLFNIHED",apoptosis-associated alterations after AIF overexpression,Jurkat cells,"induces DYm collapse, phosphatidylserine exposure, and hypoploidy"
